These results are taken from US11999699B2, “Substituted pyrazole amides” (GRUENENTHAL GMBH, priority 2021, dated 2024).

The target in this assay is T1, human NaV1.8 (Homo sapiens, UniProt Q9Y5Y9).
T1 construct: The following NaV1.8 recombinant cell line was used for recordings: HEK-NaV1.8 (NM 006514.1); expressed in transfected cells; host or cells: HEK (recombinant cell line HEK-NaV1.8)
Kind of assay: Electrophysiology: automated whole-cell voltage-clamp (patch clamp, Qube384) recordings of sodium currents in HEK-NaV1.8 cells. The assay is classed as cell-based. The settings on record: potency data either taken from inactivated or resting state, read-out: Potency category (human NaV1.8 IC50). On the procedure: Electrophysiology: Voltage-Clamp Recordings
The following NaV1.8 recombinant cell line was used for recordings: HEK-NaV1.8 (NM 006514.1) with in (NM 018400.3).
Sodium currents were measured using the patch clamp technique in the whole-cell configuration using the Qube384 (Sophion A/S, Copenhagen, Denmark) automated voltage clamp platform. “Multi hole” plates were used for the cell line expressing NaV1.8 while “single hole” plates were used for the recombinant cell lines expressing the other subtypes. Appropriate filters (for minimum seal resistance and minimum current size) and series resistance compensation (for high quality sodium channel recordings) were applied. Data was collected at ambient room temperature.
The recording extracellular solution contained (in mM): NaCl 145 mM, KCl 4 mM, CaCl2 2 mM, MgCl2 1 mM, HEPES 10 mM, Glucose 10 mM, pH 7.4 (NaOH). The intracellular recording solution contained (in mM): CsF 120 mM, CsCl 20 mM, NaCl 10 mM, EGTA 10 mM, HEPES 10 mM, pH 7.2 (CsOH). Currents were recorded at 25 kHz sampling frequency and filtered at 5 kHz. Series resistance compensation was applied at 65%.
Vehicle (VEH) is the control condition where cells are exposed to 0.3% DMSO without compound. All runs include VEH controls being exposed to the same voltage protocols to assess non-compound related phenomena such as run down and then used to isolate compound dependent effects on currents.
To check for state-dependence inhibition, the following voltage-sequence was applied every 20 seconds:
From a resting membrane potential of −120 mV, the first test pulse (P1; 20 ms to −10 mV) was applied to check for channels in the Resting State followed by a brief recovery (20 ms to −120 mV), then holding the membrane voltage to V112 (4 seconds at voltage to obtain half the channel at Rest and half Inactivated) with a subsequent second test pulse (P2; 20 ms to −10 mV) to check for channels in the Inactivated State, followed by another brief recovery (20 ms to −120 mV) and a final third test pulse (P3; 20 ms to −10 mV) to check for recovered channels.
To check for frequency-dependent inhibition, a 10 Hz protocol and a 20 Hz protocol were applied; namely,
From a resting membrane potential of −120 mV, 40-pulses (10 ms to −10 mV) was applied at 10 Hz (at 100 ms between pulses) and then at 20 Hz (at 50 ms between pulses).
Each parameter was recorded (P1, P2, P3, P40 from 10 Hz and P40 from 20 Hz) during a control period (lasting 5 minutes) when establishing the baseline and during compound period (lasting ˜12 minutes) when test compound (or vehicle) was applied. For each parameter, the value at the end of the compound period was normalized to the vehicle baseline; as follows
To adjust for any variance in the Na^+ current signal during the compound period (owing to cumulative inactivation independent of compound or shifts in biophysics over time), a dedicated segment of the recording wells in each 384 plate were dedicated to having only vehicle exposure. These vehicle-only recordings were used to correct for any apparent “run-up” or “run-down” in the experiment.
The adjusted inhibition was calculated as follows: […]
Percent inhibition was determined and IC50 values were calculated using a 4 parameter logistic model within XLFit Software (IDBS, Boston MA):
[formula] where A and B are the maximal and minimum inhibition respectively, C is the IC50 concentration and D is the (Hill) slope.
The potency data was either taken from inactivated or resting state.

T1 sequence (Q9Y5Y9 whole entry): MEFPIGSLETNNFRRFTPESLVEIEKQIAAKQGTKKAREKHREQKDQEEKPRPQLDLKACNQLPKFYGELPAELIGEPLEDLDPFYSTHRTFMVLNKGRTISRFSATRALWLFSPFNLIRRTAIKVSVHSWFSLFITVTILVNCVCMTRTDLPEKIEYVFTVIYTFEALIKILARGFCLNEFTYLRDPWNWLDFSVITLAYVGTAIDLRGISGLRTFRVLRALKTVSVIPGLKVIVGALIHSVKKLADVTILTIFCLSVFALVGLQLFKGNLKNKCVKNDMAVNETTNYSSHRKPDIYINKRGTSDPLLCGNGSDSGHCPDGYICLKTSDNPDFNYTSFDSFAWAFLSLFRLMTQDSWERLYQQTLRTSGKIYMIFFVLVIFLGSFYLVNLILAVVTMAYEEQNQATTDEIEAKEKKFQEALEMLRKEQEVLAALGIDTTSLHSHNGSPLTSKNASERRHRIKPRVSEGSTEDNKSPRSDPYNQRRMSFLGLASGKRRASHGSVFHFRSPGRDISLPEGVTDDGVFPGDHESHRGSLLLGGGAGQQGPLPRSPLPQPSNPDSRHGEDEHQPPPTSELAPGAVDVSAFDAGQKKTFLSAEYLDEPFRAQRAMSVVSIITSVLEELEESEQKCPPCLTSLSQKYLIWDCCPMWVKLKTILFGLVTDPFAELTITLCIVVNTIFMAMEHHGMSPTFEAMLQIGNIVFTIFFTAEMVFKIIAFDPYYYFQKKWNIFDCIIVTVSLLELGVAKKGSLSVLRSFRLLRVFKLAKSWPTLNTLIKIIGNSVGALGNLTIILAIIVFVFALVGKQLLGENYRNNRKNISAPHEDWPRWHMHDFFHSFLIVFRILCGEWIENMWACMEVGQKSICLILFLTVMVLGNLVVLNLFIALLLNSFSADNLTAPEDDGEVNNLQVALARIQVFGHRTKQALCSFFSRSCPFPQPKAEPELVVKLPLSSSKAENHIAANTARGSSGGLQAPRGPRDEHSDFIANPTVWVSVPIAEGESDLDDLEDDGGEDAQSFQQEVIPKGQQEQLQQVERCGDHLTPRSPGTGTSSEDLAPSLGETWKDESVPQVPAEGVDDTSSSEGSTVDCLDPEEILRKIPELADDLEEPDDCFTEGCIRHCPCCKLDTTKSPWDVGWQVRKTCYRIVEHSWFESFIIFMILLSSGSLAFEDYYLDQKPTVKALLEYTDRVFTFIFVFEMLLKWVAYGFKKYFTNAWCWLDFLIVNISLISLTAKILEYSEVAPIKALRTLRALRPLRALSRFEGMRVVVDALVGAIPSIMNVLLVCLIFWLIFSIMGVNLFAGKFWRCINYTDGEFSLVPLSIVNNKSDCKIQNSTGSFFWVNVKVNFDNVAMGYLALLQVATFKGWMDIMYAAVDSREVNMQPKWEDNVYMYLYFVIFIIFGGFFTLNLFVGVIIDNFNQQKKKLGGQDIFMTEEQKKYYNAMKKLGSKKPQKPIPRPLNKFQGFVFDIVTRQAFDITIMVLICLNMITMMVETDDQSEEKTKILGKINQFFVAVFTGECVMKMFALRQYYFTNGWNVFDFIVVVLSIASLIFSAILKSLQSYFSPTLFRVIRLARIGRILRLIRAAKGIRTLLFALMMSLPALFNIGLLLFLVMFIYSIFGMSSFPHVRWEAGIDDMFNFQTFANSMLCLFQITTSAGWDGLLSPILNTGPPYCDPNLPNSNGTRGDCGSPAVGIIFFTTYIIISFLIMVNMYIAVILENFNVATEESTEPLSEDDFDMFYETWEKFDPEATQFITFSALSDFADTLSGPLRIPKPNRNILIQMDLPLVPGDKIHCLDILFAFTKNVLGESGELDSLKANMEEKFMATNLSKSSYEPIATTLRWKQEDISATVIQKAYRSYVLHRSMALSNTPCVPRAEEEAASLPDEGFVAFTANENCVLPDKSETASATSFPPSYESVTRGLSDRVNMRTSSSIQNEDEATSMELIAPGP
T1 sequence (Q9NY72 23-215 partner): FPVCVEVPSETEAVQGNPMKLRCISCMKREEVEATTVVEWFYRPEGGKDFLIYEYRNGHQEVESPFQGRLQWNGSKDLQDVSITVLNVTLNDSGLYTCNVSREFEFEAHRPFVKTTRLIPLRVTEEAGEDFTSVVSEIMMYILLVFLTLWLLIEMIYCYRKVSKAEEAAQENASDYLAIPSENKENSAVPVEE

In the case of `C[S+]([O-])c1cc(NC(=O)c2c(C(F)(F)F)c(C(C)(F)F)nn2CC2CC(F)(F)C2)ccn1` (centres unmarked) [SC-303, 1-((3,3-difluorocyclobutyl)methyl)-3-(1,1-difluoroethyl)-N-(2-(methylsulfinyl)pyridin-4-yl)-4-(trifluoromethyl)-1H-pyrazole-5-carboxamide], the IC50 is at most 100 nM. In the case of `Cc1c(C(C)(F)F)nn(CC2C[C@H]2C)c1C(=O)Nc1ccnc(S(N)(=O)=O)c1` (some centres unmarked) [SC-314, 3-(1,1-difluoroethyl)-4-methyl-1-((2-methyleyelopropyl)methyl)-N-(2-sulfamoylpyridin-4-yl)-lH-pyrazole-5-carboxamide], the IC50 was at most 100 nM. Under `Cc1nn(C[C@H]2CCC(F)(F)C2)c(C(=O)Nc2ccnc(C(N)=O)n2)c1C(F)(F)F` [SC-248S] stands 1000 to 10000 nM; under `Cc1c(C(C)(F)F)nn(C[C@H]2CCC(F)(F)C2)c1C(=O)Nc1cccc(S(N)(=O)=O)c1` (single isomer, unassigned) [SC-296b], at most 100 nM; under `NC(=O)c1cc(NC(=O)c2c(C(F)(F)F)c(C3CC3)nn2C[C@@H]2CO[C@H](C(F)(F)F)C2)ccn1` (single isomer, unassigned) [SC-148b], at most 100 nM. Under `Cc1c([C@@H](C)C(F)(F)F)nn(CC2CC(F)(F)C2)c1C(=O)Nc1ccnc(C(N)=O)c1` [SC-188a] stands 100 to 1000 nM; under `Cc1nn(CC2CCCCC2)c(C(=O)Nc2ccc(F)c(S(N)(=O)=O)c2)c1C(F)(F)F` [SC-238, 1-(cyclohexyimethyl)-N-(4-fluoro-3-sulfamoylphenyl)-3-methyl-4-(trifluoromethyl)-1H-pyrazole-5-carboxamide], at most 100 nM; under `CS(=O)(=O)c1cc(NC(=O)c2c(C(F)(F)F)c(C3CC3)nn2CC2CCC(F)(F)C2)ccn1` (single isomer, unassigned) [SC-277a], at most 100 nM. To `NC(=O)c1cc(NC(=O)c2c(Cl)c(C3CC3)nn2CC2CCOCC2)ccn1` [SC-261, 4-(4-chloro-3-cyclopropyl-1-((tetrahydro-2H-pyran-4-yl)methyl)-1H-pyrazole-5-carboxamido)picolinamide] belongs 100 to 1000 nM. Consider `COc1cc(C(=O)Nc2cccc(S(C)(=O)=O)c2)n(CC2CCCCC2)n1` [SC-17, 2-(cyclohexylmethyl)-5-methoxy-N-(3-methylsulfonylphenyl)pyrazole-3-carboxamide], for which the half-inhibitory concentration (IC50) was in the range of 100 to 1000 nM. Under `CCc1nn(CC2CCC(F)(F)C2)c(C(=O)Nc2ccnc(S(C)(=O)=O)c2)c1C(F)(F)F` (centres unmarked) [SC-297, 1-((3,3-difluorocyclopentyl)methyl)-3-ethyl-N-(2-(methylsulfonyl)pyridin-4-yl)-4-(trifluoromethyl)-1H-pyrazole-5-carboxamide] stands at most 100 nM; under `Cc1c(C(C)(F)F)nn(CC2(C)CCO2)c1C(=O)Nc1ccnc(S(N)(=O)=O)c1` (centres unmarked) [SC-317, 3-(1,1-difluoroethyl)-4-methyl-1-((2-methyloxetan-2-yl)methyl)-N-(2-sulfamoylpyridin-4-yl)-lH-pyrazole-5-carboxamide], 1000 to 10000 nM; under `COc1nn(CC2CCC(F)(F)C2)c(C(=O)Nc2ccnc(S(C)(=O)=O)c2)c1C(F)(F)F` (centres unmarked) [SC-225, 1-((3,3-difluorocyclopentyl)methyl)-3-methoxy-N-(2-(methylsulfonyl)pyridin-4-yl)-4-(trifluoromethyl)-1H-pyrazole-5-carboxamide], at most 100 nM. As to `Cc1ncc(NC(=O)c2c(C(F)(F)F)c(C)nn2CC2CCC(F)(F)CC2)cc1C(N)=O` [SC-251, 5-(1-((4,4-difluorocyclohexyl)methyl)-3-methyl-4-(trifluoromethyl)-1H-pyrazole-5-carboxamido)-2-methylnicotinamide], the IC50 was 1000 to 10000 nM. To `Cc1c(Cl)nn(CC2CCC(F)(F)CC2)c1C(=O)Nc1ccnc(C(N)=O)c1` [SC-239, 4-(3-chloro-1-((4,4-difluorocyclohexyl)methyl)-4-methyl-1H-pyrazole-5-carboxamido)picolinamide] belongs 100 to 1000 nM; to `Cc1c(C(F)(F)F)nn(CC2CCC(F)(F)C2)c1C(=O)Nc1ccnc(S(N)(=O)=O)c1` (single isomer, unassigned) [SC-254b], at most 100 nM. Under `CNC(=O)c1cc(NC(=O)c2c(C(F)(F)F)c(C)nn2CC2CCC(F)(F)CC2)ccn1` [SC-260, 4-(1-((4,4-difluorocyclohexyl)methyl)-3-methyl-4-(trifluoromethyl)-1H-pyrazole-5-carboxamido)-N-methyIpicolinamide] stands 100 to 1000 nM; under `CC1CCCC(Cn2nc(C3CC3)c(C(F)(F)F)c2C(=O)Nc2ccnc(C(N)=O)c2)O1` (centres unmarked) [SC-143, 4-(3-cyclopropyl-1-((6-methyltetrahydro-2H-pyran-2-yl)methyl)-4-(trifluoromethyl)-1H-pyrazole-5-carboxamido)picolinamide], at most 100 nM; under `CS(=O)(=O)c1cc(NC(=O)c2c(C(F)(F)F)c(C3CC3)nn2C[C@@H]2CCO[C@H]2C(F)(F)F)ccn1` (racemic) [SC-150c], at most 100 nM. To `Cc1c(C(C)(F)F)nn(CC2(C)CCC(F)(F)C2)c1C(=O)Nc1ccnc(S(C)(=O)=O)c1` (stereo not drawn) [SC-213, 1-((3,3-difluoro-1-methyleyclopentyl)methyl)-3-(1,l-difluoroethyl)-4-methyl-N-(2-(methylsulfonyl)pyridin-4-yl)-1H-pyrazole-5-carboxamide] belongs at most 100 nM; to `CS(=O)(=O)c1cccc(NC(=O)c2cc(C(F)F)nn2CC2CCCCC2)c1` [SC-09, 1-(cyclohexylmethyl)-3-(difluoromethyl)-N-(3-(methylsulfonyl)phenyl)-1H-pyrazole-5-carboxamide], 100 to 1000 nM. Regarding `CS(=O)(=O)c1cccc(NC(=O)c2c(C(F)(F)F)cnn2CC2CCCC(F)(F)C2)c1` (centres unmarked) [SC-23, 2-[(3,3-difluorocyclohexyl)methyl]-N-(3-methylsulfonylphenyl)-4-(trifluoromethyl)pyrazole-3-carboxamide], the IC50 lay within 100 to 1000 nM. To `NS(=O)(=O)c1cccc(NC(=O)c2c(C(F)(F)F)c(C(F)F)nn2CC2CCC(F)(F)C2)c1` (centres unmarked) [SC-262, 1-((3,3-difluorocyclopentyl)methyl)-3-(difluoromethyl)-N-(3-sulfamoylphenyl)-4-(trifluoromethyl)-1H-pyrazole-5-carboxamide] belongs at most 100 nM.

With `Cc1c([C@H](C)C(F)(F)F)nn(CC2CC(F)(F)C2)c1C(=O)Nc1ccnc(C(N)=O)c1` [SC-188b], the concentration for half-maximal inhibition (IC50) lay within 100 to 1000 nM.

`NC(=O)c1cc(NC(=O)c2c(C(F)(F)F)c(C3CC3)nn2CC2CC(F)(F)C2)ccc1F` [SC-274, N-(3-carbamoyl-4-fluorophenyl)-3-cyclopropyl-1-((3,3-difluorocyclobutyl)methyl)-4-(trifluoromethyl)-1H-pyrazole-5-carboxamide]: the IC50 is at most 100 nM. Regarding `CS(=O)(=O)c1cc(NC(=O)c2c(C(F)(F)F)c(C3CC3)nn2CC2CC(OC(F)F)C2)ccn1` (centres unmarked) [SC-290, 3-cyclopropyl-1-((3-(difluoromethoxy)cyclobutyl)methyl)-N-(2-(methyIsulfonyl)pyridin-4-yl)-4-(trifluoromethyl)-1H-pyrazole-5-carboxamide], the IC50 was 100 to 1000 nM.

As to `Cc1nn(C[C@@H]2CCC(F)(F)C2)c(C(=O)Nc2ccnc(C(N)=O)n2)c1C(F)(F)F` [SC-248R], the IC50 was 1000 to 10000 nM. To `Cc1c(C(C)(F)F)nn(CC2(F)CC2)c1C(=O)Nc1ccnc(S(N)(=O)=O)c1` [SC-310, 3-(1,1-difluoroethyl)-1-((1-fluorocyclopropyl)methyl)-4-methyl-N-(2-sulfamoylpyridin-4-yl)-lH-pyrazole-5-carboxamide] belongs 100 to 1000 nM; to `Cc1nn(CC2CCC(F)(F)CC2)c(C(=O)Nc2ncc(C(N)=O)o2)c1C(F)(F)F` [SC-256, 2-(1-((4,4-difluorocyclohexyl)methyl)-3-methyl-4-(trifluoromethyl)-1H-pyrazole-5-carboxamido)oxazole-5-carboxamide], 1000 to 10000 nM.

Usually IC50 stands for the point on the concentration scale where inhibition reaches its midpoint.
